Tested on: FPTase
Assay: PET Imaging in Dogs: blockade of [11C] radiotracer binding
Format: in vivo
Conditions: dose of 10 mpk infused over 5 minutes; female beagle dogs; radiotracer [11C] compound of Example 6
Protocol: Female beagle dogs weighing 7.7-14.6 kg (11.0±2.3 kg) are fasted for at least 12 hours allowing water intake ad libitum, and are premedicated with 0.3-0.4 mL Acepromazine injected i.m. on the day of the experiment. A 20 G two inch venous catheter is placed into the right front leg ulnar vein through which anesthesia is introduced by sodium pentobarbital 25-30 mg/kg in 3-4 ml and maintained with additional pentobarbital at an average dose of 3 mg/kg/hr. Another catheter is inserted into the contralateral ulnar vein for radiotracer administration.
Oxygen saturation of circulating blood is measured with a pulse oximeter (Nellcor Inc., Hayward, Calif.) placed on the tongue of the animal. Circulatory volume is maintained by intravenous infusion of isotonic saline. A 22 G cannula is inserted into the anterior tibial or distal femoral artery for continuous pressure monitoring (Spacelabs™, model 90603A). EKG, heart rate, and core temperature are monitored continuously. In particular, EKG is observed for ST segment changes and arrhythmias. […]
For uninhibited distribution of radiotracer, regions of interest (ROIs) are drawn on the reconstructed image includes the kidney cortex and a region of liver which is removed from the gallbladder images. […] Data are expressed as radioactivity per unit time per unit volume (μCi/cc/mCi injected dose). […]

“(S)-1-(3-Fluoroethoxy-5-bromophenyl)-4-[1-(4-cyanobenzyl) -5-imidazoylmethyl]-5-[(methanesulfonyl)ethyl]-2-piperazinone [Example 2]” was tested. Which “block of PET radiotracer binding (maximum enzyme-specific signal)” value did it give?
The value was “completely block radiotracer binding”.
